Laboratory results from ChEMBL document CHEMBL4177521, “Therapeutic Potential of Fatty Acid Amide Hydrolase, Monoacylglycerol Lipase, and N-Acylethanolamine Acid Amidase Inhibitors” (J Med Chem, 2017).

Tests used:
[1] = target: T1, Monoglyceride lipase (Homo sapiens, UniProt Q99685); experiment: Inhibition of recombinant human N-terminal His6-tagged and C-terminal Strep-tagged MAGL expressed in Escherichia coli Rosetta using [3H]2-OG as substrate after 10 mins by liquid scintillation counting method
T1 sequence (Q99685 whole entry): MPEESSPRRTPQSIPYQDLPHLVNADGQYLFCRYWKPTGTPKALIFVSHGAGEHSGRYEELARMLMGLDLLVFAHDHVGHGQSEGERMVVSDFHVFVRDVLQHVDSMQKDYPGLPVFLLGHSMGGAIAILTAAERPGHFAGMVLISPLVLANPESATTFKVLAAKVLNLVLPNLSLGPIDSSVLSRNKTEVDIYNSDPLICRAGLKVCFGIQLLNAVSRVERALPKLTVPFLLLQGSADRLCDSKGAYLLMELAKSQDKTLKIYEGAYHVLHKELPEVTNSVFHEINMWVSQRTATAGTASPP

[2] = target: T2, Fatty-acid amide hydrolase 1 (Rattus norvegicus, UniProt P97612); experiment: Inhibition of rat FAAH
T2 sequence (P97612 whole entry): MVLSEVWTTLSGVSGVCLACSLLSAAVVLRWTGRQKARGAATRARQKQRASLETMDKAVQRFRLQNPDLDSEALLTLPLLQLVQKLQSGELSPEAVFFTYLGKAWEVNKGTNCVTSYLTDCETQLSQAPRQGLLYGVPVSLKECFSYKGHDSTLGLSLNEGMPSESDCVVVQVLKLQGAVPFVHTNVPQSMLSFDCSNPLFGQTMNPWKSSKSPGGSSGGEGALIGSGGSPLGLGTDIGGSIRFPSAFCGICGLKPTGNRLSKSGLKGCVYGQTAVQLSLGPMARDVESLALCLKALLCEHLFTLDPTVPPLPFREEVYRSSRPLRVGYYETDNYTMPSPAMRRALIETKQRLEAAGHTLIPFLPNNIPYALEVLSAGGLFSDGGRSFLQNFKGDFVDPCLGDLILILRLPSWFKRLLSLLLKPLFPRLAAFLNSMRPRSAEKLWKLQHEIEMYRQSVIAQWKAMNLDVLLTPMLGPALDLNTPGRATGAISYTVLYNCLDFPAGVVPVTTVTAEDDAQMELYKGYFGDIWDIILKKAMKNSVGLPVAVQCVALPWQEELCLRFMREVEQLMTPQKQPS

[3] = target: T2, Fatty-acid amide hydrolase 1; experiment: Inhibition of Sprague-Dawley rat brain FAAH preincubated for 10 mins followed by [3H]-anandamide substrate addition after 30 mins by liquid scintillation counting method
[4] = Half life in pH 7.4 buffer; assay type: physicochemical
[5] = Half life in pH 5.0 buffer; assay type: physicochemical
[6] = Half life in rat plasma; assay type: ADME, cell-free
[7] = organism: Homo sapiens; experiment: Selectivity index, ratio of IC50 for FAAH (unknown origin) to IC50 for human MAGL
[8] = target: T3, Monoglyceride lipase (Rattus norvegicus, UniProt Q8R431); experiment: Inhibition of rat MAGL
T3 sequence (Q8R431 whole entry): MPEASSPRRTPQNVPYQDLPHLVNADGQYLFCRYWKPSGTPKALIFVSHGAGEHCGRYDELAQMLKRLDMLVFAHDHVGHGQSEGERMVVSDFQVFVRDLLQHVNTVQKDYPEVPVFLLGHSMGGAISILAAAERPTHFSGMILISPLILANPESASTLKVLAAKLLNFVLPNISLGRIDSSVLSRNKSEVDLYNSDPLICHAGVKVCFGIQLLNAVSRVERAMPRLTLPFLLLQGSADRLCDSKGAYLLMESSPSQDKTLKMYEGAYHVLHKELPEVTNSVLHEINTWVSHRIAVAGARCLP

[9] = target: T4, Monoglyceride lipase (Mus musculus, UniProt O35678); experiment: Inhibition of mouse MAGL
T4 sequence (O35678 whole entry): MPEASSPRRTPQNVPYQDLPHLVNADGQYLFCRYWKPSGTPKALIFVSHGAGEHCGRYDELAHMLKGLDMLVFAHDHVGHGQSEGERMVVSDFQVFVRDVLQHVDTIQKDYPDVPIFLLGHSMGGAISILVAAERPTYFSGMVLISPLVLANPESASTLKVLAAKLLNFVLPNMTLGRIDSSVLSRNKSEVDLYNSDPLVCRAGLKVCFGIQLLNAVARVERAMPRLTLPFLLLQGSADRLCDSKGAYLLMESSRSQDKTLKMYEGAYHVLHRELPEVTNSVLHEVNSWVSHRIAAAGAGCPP

[10] = organism: Homo sapiens; experiment: Selectivity index, ratio of IC50 for ABHD6 (unknown origin) to IC50 for human MAGL
[11] = target: T2, Fatty-acid amide hydrolase 1; experiment: Inhibition of rat brain microsomal FAAH using N-(2-hydroxyethyl)-4-pyren-1-yl-butanamide as substrate after 60 mins by RP HPLC based fluorescence assay
[12] = Half life in mouse plasma; assay type: ADME, cell-free
[13] = target: T2, Fatty-acid amide hydrolase 1; experiment: Inhibition of rat FAAH assessed as reduction in [14C]oleamide conversion to oleic acid by Lineweaver-Burk plot analysis
[14] = target: T3, Monoglyceride lipase; experiment: Inhibition of rat MAGL preincubated for 30 mins followed by FP-Rh addition after 30 mins by gel-based ABPP assay
[15] = target: T4, Monoglyceride lipase; experiment: Inhibition of mouse MAGL preincubated for 30 mins followed by FP-Rh addition after 30 mins by gel-based ABPP assay
[16] = target: T1, Monoglyceride lipase; experiment: Inhibition of recombinant human full length MAGL expressed in HEK293 cells preincubated for 30 mins followed by FP-Rh addition after 30 mins by gel-based ABPP assay; assay type: cell-based
[17] = target: T3, Monoglyceride lipase; experiment: Inhibition of recombinant rat N-terminal histidine tagged MAGL expressed in Escherichia coli Rosetta 2 (DE3) pLysS cells preincubated for 10 mins followed by 2-OG substrate addition after 10 mins by LC/MS analysis
[18] = target: T5, N-acylethanolamine-hydrolyzing acid amidase (Homo sapiens, UniProt Q02083); experiment: Inhibition of recombinant human NAAA expressed in HEK293 cells preincubated for 10 mins followed by PAMCA substrate addition after 30 mins by fluorescence assay; assay type: cell-based
T5 sequence (Q02083 whole entry): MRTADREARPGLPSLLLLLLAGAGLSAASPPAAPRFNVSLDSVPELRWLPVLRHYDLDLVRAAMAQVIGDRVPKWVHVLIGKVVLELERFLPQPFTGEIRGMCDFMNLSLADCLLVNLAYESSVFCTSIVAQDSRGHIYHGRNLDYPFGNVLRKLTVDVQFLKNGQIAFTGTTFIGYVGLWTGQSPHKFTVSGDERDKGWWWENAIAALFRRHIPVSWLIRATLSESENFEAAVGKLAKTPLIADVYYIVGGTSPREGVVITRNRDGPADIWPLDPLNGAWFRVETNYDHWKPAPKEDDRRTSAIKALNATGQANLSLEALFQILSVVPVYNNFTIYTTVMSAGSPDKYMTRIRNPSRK

[19] = Half life in rat plasma at 3 uM by LC/MS analysis; assay type: ADME, cell-free
[20] = target: T6, Fatty-acid amide hydrolase 2 (Homo sapiens, UniProt Q6GMR7); experiment: Inhibition of recombinant human N-terminal FLAG-tagged/C-terminal Myc-His6 tagged FAAH2 (32 to 579 residues) expressed in COS7 cell membranes; assay type: cell-based
T6 sequence (Q6GMR7 whole entry): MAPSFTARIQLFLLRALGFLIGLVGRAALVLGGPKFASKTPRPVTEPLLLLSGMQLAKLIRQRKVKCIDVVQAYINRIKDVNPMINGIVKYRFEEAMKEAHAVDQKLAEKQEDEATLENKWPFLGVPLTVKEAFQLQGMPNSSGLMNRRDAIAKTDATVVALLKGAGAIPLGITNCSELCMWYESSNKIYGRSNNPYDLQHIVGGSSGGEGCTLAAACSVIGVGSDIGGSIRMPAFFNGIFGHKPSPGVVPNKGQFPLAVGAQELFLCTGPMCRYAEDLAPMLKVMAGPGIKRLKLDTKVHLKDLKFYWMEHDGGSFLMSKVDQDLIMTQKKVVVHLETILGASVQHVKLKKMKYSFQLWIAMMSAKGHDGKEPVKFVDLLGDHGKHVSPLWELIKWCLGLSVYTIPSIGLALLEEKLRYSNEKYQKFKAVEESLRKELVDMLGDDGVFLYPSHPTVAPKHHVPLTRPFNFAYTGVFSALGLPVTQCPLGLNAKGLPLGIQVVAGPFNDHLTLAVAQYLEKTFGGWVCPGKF

[21] = target: T3, Monoglyceride lipase; experiment: Inhibition of rat cerebellar membranes MAGL-like activity preincubated for 30 mins followed by 2-AG substrate addition after 90 mins by HPLC analysis; design: species or system Cerebellum, Membrane
[22] = target: T3, Monoglyceride lipase; experiment: Inhibition of recombinant rat MAGL expressed in Escherichia coli using 2-AG as substrate

CCN(CC)C(=S)SSC(=S)N(CC)CC
IC50 [1]: 360 nM

COc1nn(-c2ccc(NC(=O)OCc3ccccc3)c(C)c2)c(=O)o1
IC50 [2]: 86 nM

O=C(NC1CCCCC1)OCc1cn(-c2ccccc2)nn1
IC50 [3]: 381 nM

COc1nn(-c2cccc(Oc3ccccc3)c2)c(=O)o1
IC50 [2]: 6.1 nM

O=C(CCCCCc1ccccc1)N1CCOC1=O
half-life [4]: > 24 h | half-life [5]: > 24 h | half-life [6]: 3.33 h

O=C(N1CCC(C(c2ccc3c(c2)OCO3)c2ccc3c(c2)OCO3)CC1)n1cncn1
Ratio IC50 [7]: 11200 | IC50 [8]: 0.214 nM | IC50 [9]: 0.275 nM | Ratio IC50 [10]: 60

O=C(NCCCCCCCCn1nnc(-c2ccccc2)n1)Oc1ccccc1
IC50 [11]: 110 nM

O=C(CCc1ccccc1)N[C@H]1COC1=O
half-life [12]: < 1 min

O=C(CCCCCCCCc1ccccc1)c1nc2ncccc2o1
Ki [13]: 0.52 nM

O=C(NCCCCCCCn1nnc(-c2cccc(Cl)c2)n1)Oc1cccnc1
IC50 [11]: 5.3 nM

O=C(OC(C(F)(F)F)C(F)(F)F)N1CCN(Cc2cccc(Oc3ccccc3)c2)CC1
IC50 [14]: 14 nM | IC50 [15]: 7.6 nM | IC50 [16]: 3.7 nM

CCCCCCCCn1sccc1=O
IC50 [17]: 88 nM

CC(C)(C)[C@@H]1OC(=O)[C@H]1NC(=O)OCc1ccc(-c2ccccc2)cc1
IC50 [18]: 507 nM | half-life at 3 µM [19]: > 5 min

O=C(NC1CCCCC1)OCc1cn(Cc2ccccc2)nn1
IC50 [3]: 26.2 nM

CC(C)(C)[C@@H]1OC(=O)[C@H]1NC(=O)OCCCCCc1ccccc1
IC50 [18]: 234 nM | half-life at 3 µM [19]: > 5 min

O=C(CCCCc1ccccc1)c1nc2ncccc2o1
Ki [13]: 0.3 nM

O=C(NCCCCCCn1nnc(-c2ccccc2)n1)Oc1cccnc1
IC50 [11]: 11 nM

NC(=O)c1cccc(-c2cccc(OC(=O)NC3CCCCC3)c2)c1 [URB-597]
IC50 [20]: 5 nM

O=C1C=CC(=O)N1c1ccc2ccc3cccc4ccc1c2c34
IC50 [21]: 9200 nM

O=C(N1CCC(=C(c2ccc3c(c2)OCO3)c2ccc3c(c2)OCO3)CC1)n1cncn1
IC50 [8]: 0.269 nM | IC50 [9]: 0.191 nM

CN(Cc1cccc(-c2ccncc2)c1)C(=O)OC(C(F)(F)F)C(F)(F)F
IC50 [14]: 385 nM

COC(=O)[C@]1(C)CC[C@]2(C)CC[C@]3(C)C4=CC=C5C(=CC(=O)C(O)=C5C)[C@]4(C)CC[C@@]3(C)C2C1 (stereo partly drawn)
IC50 [22]: 93 nM

CCCCCCCCCCC(=O)N[C@H]1CNC1=O
IC50 ([18]; hek293): 100 nM
